A word on the IC50: it is the midpoint of a concentration-inhibition curve. The low end stands for greater potency, the high end for weaker potency.

One data set addresses mushroom tyrosinase. In words: Tyrosinase enzyme inhibition assay. The format is biochemical. Particulars: pure compounds; mean ± S.D., triplicate independent experiments. Here is the method:
Maplifa was prepared by new methods developed in the laboratory. Briefly, leaves of red maple were dried and macerated in aqueous ethanol to obtain the crude extract which was then further purified on a resin column to remove chlorophyll and other plant pigments.

In another data set the test system is TRP-1. In words: mRNA expression by real-time PCR in B16F10 cells. To be noted: 10 μM, 48 h and 72 h. It is filed as cell-based, murine. The protocol: (§1) Melanin biosynthesis involves multi-step pathways. In order to determine the molecular mechanisms of inhibitory effects of ginnalins on melanin synthesis, expression levels of melanogenesis related genes, including MITF, TYR, TRP-1 and TRP-2, in B16F10 cells were analyzed by using RT-PCR. The B16F10 cells were planted in 6-well plates at a density of 2.0×10^5 cells/well. After being incubated for 24 h, cells were treated with 2 or 10 μM of ginnalins for 48 or 72 h. Total RNA was isolated from cells using TRIzol reagent (Invitrogen) according to the manufacturer's instructions. One microgram of total RNA was converted to single-stranded cDNA using oligo(dT)18 primers, and mRNA levels were quantified by quantitative real-time PCR using a Roche LightCycler detection system (Roche Applied Science, Mannheim, Germany). Samples were run by using SYBR Green and compared with levels of b2m rRNA as a reference housekeeping gene. Quantitative real-time PCR conditions were optimized for each gene using appropriate forward and reverse primers. The primers used are listed in Supplemental material. All oligonucleotides were synthesized by Invitrogen Inc., CA.
For orientation: Real-time PCR tracks product formation cycle by cycle.

The next data set deals with TYR. The data set can be described thus: mRNA expression by real-time PCR in B16F10 cells. The format is cell-based, murine. Particulars: 10 μM; for TYR mRNA expression: 48 h and 72 h. The protocol: as §1
For data set [1], the system named is TRP-2. The data set can be described thus: mRNA expression by real-time PCR in B16F10 cells. It is filed as cell-based, murine. Particulars: 10 μM, 48 h and 72 h. The protocol:
as §1

In another data set the test system is MITF. In words: mRNA expression by real-time PCR in B16F10 cells. It is filed as cell-based, murine. To be noted: 10 μM, 48 h and 72 h. Here is the method: as §1
Data set [2] has as its system B16F10 cells. In words: Melanin content in B16F10 cells. It is filed as cell-based, murine. Particulars: for melanin content compared to control group: 72 h. The protocol:
The contents of biosynthesized melanin in melanoma B16F10 cells that treated with ginnalinginnalins A-C at serial concentrations were evaluated by comparing with the control group. The melanin content was determined using a modification of the method described by Liang and Ho. Briefly, B16F10 cells (5×10^4 cells/well) were first seeded in 24-well plates for 24 h and then medium was changed with new DMEM medium containing test samples of various concentrations. After 72 h incubation, the cells were harvested through trypsinization and washed with phosphate-buffered saline (PBS) twice. Then cells were lyzed with 1 N NaOH containing 10% DMSO and heated at 80° C. for 1 h. After samples cooled down to room temperature, the amount of melanin content was spectrophotometrically measured at 400 nm.

For data set [3], the system named is B16F10 cells. The data set can be described thus: MTS cell viability assay. To be noted: 72 h; for B16F10 cell viability: vs untreated control. The format is cell-based, murine. Here is the method: To further investigate the anti-melanogenic activities of ginnalinginnalins A-C, present in the Maplifa extract, cellular based assay were employed to measure the melanin content on murine melanoma B16F10 cells. In order to determine the non-toxic concentrations of ginnalinginnalins for cellular assays, cell viability on B16F10 cells were first evaluated by using MTS assay. The MTS assay was carried out as described previously with modifications. At the end of either 24, 48 or 72 h of treatment with test samples (in the concentration range of 1-100 μM for purified gallotannins and 6.25-200 μg/mL for Maplifa extract), 20 μL of the MTS reagent, in combination with the electron coupling agent, phenazine menthosulfate, were added to the wells and cells were incubated at 37° C. in a humidified incubator for 3 h. Absorbance at 490 nm was monitored with a spectrophotometer (SpectraMax M2, Molecular Devices Corp., operated by SoftmaxPro v.4.6 software, CA, USA) to obtain the number of cells relative to control populations. […] Data was presented as mean values±S.D. and were obtained from three separate experiments. Two-tailed unpaired student's t-test was used for statistical analysis of the data using the Office Excel 2010 software. A p value <0.05 was considered significant.
Murine melanoma B16F10 was purchased from the American Type Culture Collection (Rockville, Md.). Cells were cultured in Dulbecco's Modified Eagle Medium (DMEM) medium (Wilkem Scientific, R.I.) that was supplemented with 10% v/v fetal bovine serum, 1% v/v nonessential amino acids and 1% v/v antibiotic solution at 37° C. in 5% CO2. Samples were dissolved at a concentration of 50 mg/mL in dimethylsulfoxide (DMSO) as stock solution and then diluted to the desired final concentrations with growth medium. […]
Melanoma B16F10 cells were treated with serial concentrations of Maplifa (6.25, 12.5, 25, 50, 100, and 200 μg/mL) for 48 and 72 h. In addition, various concentrations (0, 5, 10, 25, and 50 μM) of ginnalinginnalins A-C for 72 h and the cell viabilities were determined by comparing with the untreated control group. […]

The test system of data set [4] is TRP-2. The data set can be described thus: Protein expression by Western blot in B16F10 cells. It is filed as cell-based, murine. Particulars: 10 μM, 72 hours. Here is the method: Furthermore, the regulation of ginnalins on the protein expressions of melanogenesis related enzymes in B16F10 cells were evaluated by using Western blot. Expressions of melanin biosynthesis-related proteins, including MITF, TYR, TRP-1 and TRP-2 expression in B16F10 cells were measured by western blot. After incubation with ginnalins for 72 h, proteins from cells were resolved by SDS-PAGE and then transferred to polyvinylidene fluoride membrane. The membrane was blocked with 5% nonfat dry milk in Tris-buffered saline with Tween followed by incubation with primary antibodies overnight. Bands were visualized on X-ray film using an ECL detection kit (Amersham Biosciences, Piscataway, N.J.). A list of antibody, source, and dilution is listed in Supplementary material.

The compound `OC[C@H]1O[C@@H](Oc2ccc(O)cc2)[C@H](O)[C@@H](O)[C@@H]1O` [Arbutin, reference compound] returned an IC50 on mushroom tyrosinase of 63 ± 0.3 µM.
As to `O=C(OC[C@H]1OC[C@H](OC(=O)c2cc(O)c(O)c(O)c2)[C@@H](O)[C@@H]1O)c1cc(O)c(O)c(O)c1` [Ginnalin A], the “TRP-1 mRNA expression” value in the data set with TRP-1 was “significantly reduced”. The “TYR mRNA expression” value in the data set on TYR is reported as “significantly reduced”. Besides, the “TRP-2 mRNA expression” value with TRP-2 [1] is given as “significantly reduced”. In the data set with MITF, the “MITF mRNA expression” value is listed as “significantly reduced”. Also, the “melanin content compared to control group” value in the data set with B16F10 cells [2] (25 μM) is recorded as 79.1%; with B16F10 cells [2] (50 μM) it was 56.7%. Besides, in the data set with B16F10 cells [2] (50 μM), the “effect on melanin content” value was “clearly reduced”. The compound further registered a half-inhibitory concentration (IC50) at mushroom tyrosinase of 182 µM. The B16F10 cell viability turned out to be 87.0% with B16F10 cells [3] (25 μM) and 89.5% with B16F10 cells [3] (50 μM). Besides, in the data set on B16F10 cells [3] (low concentrations (5 and 10 μM)), the “toxicity to B16F10 cells” value is given as “non-toxic”. Also, in the data set with TRP-2 [4], the “decrease of TRP-2 protein expression” value turned out to be 87.9%.
For the compound `O=C(OC[C@H]1OC[C@H](O)[C@@H](O)[C@@H]1O)c1cc(O)c(O)c(O)c1` [Ginnalin B], the “TRP-1 mRNA expression” value in the data set with TRP-1 is reported as “significantly decreased”. Besides, the “decrease of TYR mRNA expression” value in the data set on TYR (48 hours) came out at 10.0%; with TYR (72 hours), 7.5%. The “TRP-2 mRNA expression” value in the data set with TRP-2 [1] is “significantly decreased”. In the data set with MITF, the “MITF mRNA expression” value is given as “significantly decreased”. The “anti-melanogenic effects in B16F10 cells” value in the data set on B16F10 cells [2] is “only minor anti-melanogenic effects”. Besides, the “melanin content compared to control group” value in the data set on B16F10 cells [2] (25 μM) and in the data set with B16F10 cells [2] (50 μM) was 90.0% each time. Moreover, 1050 µM corresponded to half-maximal inhibition on mushroom tyrosinase (IC50). Moreover, in the data set with TRP-2 [4], the “decrease of TRP-2 protein expression” value is listed as 92.0%.
As to `O=C(O[C@H]1CO[C@H](CO)[C@@H](O)[C@@H]1O)c1cc(O)c(O)c(O)c1` [Ginnalin C], the “TRP-1 mRNA expression” value in the data set on TRP-1 is recorded as “did not reduce”. For the same compound, the “TYR mRNA expression” value in the data set with TYR is “only slightly decreased”. In addition, the “TRP-2 mRNA expression” value in the data set on TRP-2 [1] was “only slightly decreased”. In the data set with MITF, the “MITF mRNA expression” value is listed as “significantly down-regulated”. Besides, the “anti-melanogenic effects in B16F10 cells” value in the data set on B16F10 cells [2] is “only minor anti-melanogenic effects”. Besides, the “melanin content compared to control group” value in the data set with B16F10 cells [2] (25 μM) worked out at 89.7%; in the data set on B16F10 cells [2] (50 μM) it was 68.8%. The midpoint of inhibition against mushroom tyrosinase, the IC50, lay at 858 µM. Moreover, in the data set on TRP-2 [4], the “decrease of TRP-2 protein expression” value stood at 69.5%.
